Measurements published in ChEMBL document CHEMBL6120962, “New Mitochondria-Targeted Fisetin Derivative Compromises Mitophagy and Limits Survival of Drug-Induced Senescent Breast Cancer Cells” (J Med Chem, 2024).
One block for each molecule: values may come before it. The source made the active and inactive calls. No cut-off for these calls is given here.

Tests used:
HCC1428 [1] = test: Anticancer activity against ER-positive human HCC1428 cells assessed as effect on metabolic activity at 10 uM incubated for 24 hrs by MTT assay; format: functional, cell-based
BJ [2] = test: Cytotoxicity against human BJ cells assessed as effect on metabolic activity at 10 uM incubated for 24 hrs by MTT assay; format: toxicity, cell-based
Mitochondrial membrane [3] = test: Induction of mitochondrial membrane potential depolarization in human HCC1500 cells at 1 to 5 uM incubated for 24 hrs by 7-AAD staining based flow cytometric analysis; format: cell membranes; conditions: dose 1-5 µM
Mitochondrial membrane [4] = test: Induction of mitochondrial membrane potential depolarization in human CAMA-1 cells at 1 to 5 uM incubated for 24 hrs by 7-AAD staining based flow cytometric analysis; format: cell membranes; conditions: dose 1-5 µM
Mitochondrial membrane [5] = test: Induction of mitochondrial membrane potential depolarization in human HCC1428 cells at 1 to 5 uM incubated for 24 hrs by 7-AAD staining based flow cytometric analysis; format: cell membranes; conditions: dose 1-5 µM
Mitochondrial membrane [6] = test: Induction of mitochondrial membrane potential depolarization in human ZR-75-30 cells at 1 to 5 uM incubated for 24 hrs by 7-AAD staining based flow cytometric analysis; format: cell membranes; conditions: dose 1-5 µM
HCC1428 [7] = test: Induction of mitochondrial dysfunction in tamoxifen-induced senescent human HCC1428 cells assessed as decrease in maximal respiration at 5 uM incubated for 6 hrs by real-time analysis; format: functional, cell-based
HCC1428 [8] = test: Induction of mitochondrial dysfunction in tamoxifen-induced senescent human HCC1428 cells assessed as decrease in ATP production at 5 uM incubated for 6 hrs by real-time analysis; format: functional, cell-based
HCC1428 [9] = test: Induction of mitochondrial dysfunction in tamoxifen-induced senescent human HCC1428 cells assessed as decrease in spare respiratory capacity at 5 uM incubated for 6 hrs by real-time analysis; format: functional, cell-based
HCC1428 [10] = test: Induction of mitochondrial dysfunction in tamoxifen-induced senescent human HCC1428 cells assessed as decrease in coupling efficiency respiration at 5 uM incubated for 6 hrs by real-time analysis; format: functional, cell-based
HCC1428 [11] = test: Induction of mitochondrial dysfunction in tamoxifen-induced senescent human HCC1428 cells assessed as increase in proton leak at 5 uM incubated for 6 hrs by real-time analysis; format: functional, cell-based
MCF-10F [12] = test: Induction of mitochondrial dysfunction in tamoxifen-induced senescent human MCF-10F cells assessed as decrease in maximal respiration at 5 uM incubated for 6 hrs by real-time analysis; format: functional, cell-based
MCF-10F [13] = test: Induction of mitochondrial dysfunction in tamoxifen-induced senescent human MCF-10F cells assessed as decrease in ATP production at 5 uM incubated for 6 hrs by real-time analysis; format: functional, cell-based
MCF-10F [14] = test: Induction of mitochondrial dysfunction in tamoxifen-induced senescent human MCF-10F cells assessed as decrease in spare respiratory capacity at 5 uM incubated for 6 hrs by real-time analysis; format: functional, cell-based
MCF-10F [15] = test: Induction of mitochondrial dysfunction in tamoxifen-induced senescent human MCF-10F cells assessed as decrease in coupling efficiency at 5 uM incubated for 6 hrs by real-time analysis; format: functional, cell-based
MCF-10F [16] = test: Induction of mitochondrial dysfunction in tamoxifen-induced senescent human MCF-10F cells assessed as increase in proton leak at 5 uM incubated for 6 hrs by real-time analysis; format: functional, cell-based
HCC1428 [17] = test: Induction of autophagosome formation in tamoxifen-induced senescent human HCC1428 cells assessed as increase in ubiquitin level at 1 to 5 uM by immunostaining based imaging cytometric analysis; format: functional, cell-based; conditions: dose 1-5 µM
HCC1428 [18] = test: Induction of autophagosome formation in tamoxifen-induced senescent human HCC1428 cells assessed as increase in LC3B level at 1 to 5 uM by immunostaining based imaging cytometric analysis; format: functional, cell-based; conditions: dose 1-5 µM
HCC1428 [19] = test: Induction of autophagy in tamoxifen-induced senescent human HCC1428 cells assessed as increase in ULK1 level at 1 to 5 uM by immunostaining based imaging cytometric analysis; format: functional, cell-based; conditions: dose 1-5 µM
HCC1428 [20] = test: Induction of autophagy in tamoxifen-induced senescent human HCC1428 cells assessed as increase in VPS34 level at 1 to 5 uM by immunostaining based imaging cytometric analysis; format: functional, cell-based; conditions: dose 1-5 µM
HCC1428 [21] = test: Induction of ubiquitin-independent mitophagy in tamoxifen-induced senescent human HCC1428 cells assessed as increase in BNIP3 level at 1 to 5 uM by immunostaining based imaging cytometric analysis; format: functional, cell-based; conditions: dose 1-5 µM
HCC1428 [22] = test: Induction of alternative mitophagy in tamoxifen-induced senescent human HCC1428 cells assessed as increase in Rab9 level at 1 to 5 uM by immunostaining based imaging cytometric analysis; format: functional, cell-based; conditions: dose 1-5 µM
HCC1428 [23] = test: Upregulation of BECN1 level in tamoxifen-induced senescent human HCC1428 cells at 1 to 5 uM by immunostaining based imaging cytometric analysis; format: functional, cell-based; conditions: dose 1-5 µM
HCC1428 [24] = test: Induction of ubiquitin-dependent mitophagy in tamoxifen-induced senescent human HCC1428 cells assessed as increase in PINK1 level at 1 to 5 uM by immunostaining based imaging cytometric analysis; format: functional, cell-based; conditions: dose 1-5 µM
HCC1428 [25] = test: Induction of ubiquitin-dependent mitophagy in tamoxifen-induced senescent human HCC1428 cells assessed as increase in parkin level at 1 to 5 uM by immunostaining based imaging cytometric analysis; format: functional, cell-based; conditions: dose 1-5 µM
HCC1500 [26] = test: Induction of apoptosis in human HCC1500 cells assessed as phosphatidylserine externalization at 1 to 5 uM incubated for 24 hrs by Annexin V-FITC staining based flow cytometric analysis; format: functional, cell-based; conditions: dose 1-5 µM
CAMA-1 [27] = test: Induction of apoptosis in human CAMA-1 cells assessed as phosphatidylserine externalization at 1 to 5 uM incubated for 24 hrs by Annexin V-FITC staining based flow cytometric analysis; format: functional, cell-based; conditions: dose 1-5 µM
HCC1428 [28] = test: Induction of apoptosis in human HCC1428 cells assessed as phosphatidylserine externalization at 1 to 5 uM incubated for 24 hrs by Annexin V-FITC staining based flow cytometric analysis; format: functional, cell-based; conditions: dose 1-5 µM
ZR-75-30 [29] = test: Induction of apoptosis in human ZR-75-30 cells assessed as phosphatidylserine externalization at 1 to 5 uM incubated for 24 hrs by Annexin V-FITC staining based flow cytometric analysis; format: functional, cell-based; conditions: dose 1-5 µM
HCC1500 [30] = test: Induction of apoptosis in tamoxifen-induced senescent human HCC1500 cells assessed as phosphatidylserine externalization at 1 to 5 uM incubated for 24 hrs by Annexin V-FITC staining based flow cytometric analysis; format: functional, cell-based; conditions: dose 1-5 µM
CAMA-1 [31] = test: Induction of apoptosis in tamoxifen-induced senescent human CAMA-1 cells assessed as phosphatidylserine externalization at 1 to 5 uM incubated for 24 hrs by Annexin V-FITC staining based flow cytometric analysis; format: functional, cell-based; conditions: dose 1-5 µM
HCC1428 [32] = test: Induction of apoptosis in tamoxifen-induced senescent human HCC1428 cells assessed as phosphatidylserine externalization at 1 to 5 uM incubated for 24 hrs by Annexin V-FITC staining based flow cytometric analysis; format: functional, cell-based; conditions: dose 1-5 µM
ZR-75-30 [33] = test: Induction of apoptosis in tamoxifen-induced senescent human ZR-75-30 cells assessed as phosphatidylserine externalization at 1 to 5 uM incubated for 24 hrs by Annexin V-FITC staining based flow cytometric analysis; format: functional, cell-based; conditions: dose 1-5 µM
HCC1428 [34] = test: Induction of apoptosis in tamoxifen-induced senescent human HCC1428 cells assessed as decrease in AKT level at 5 uM incubated for 24 hrs by Western blotting analysis; format: functional, cell-based
[35] = biological target: RAC-alpha serine/threonine-protein kinase (Homo sapiens) (UniProt P31749); test: Binding affinity to recombinant human AKT (14 to 276 residues) assessed as interaction by measuring decrease in chemiluminescence signal at 0.01 to 5 uM incubated overnight by dot-blot analysis; conditions: dose 0.01-5 µM
[36] = biological target: Apoptosis regulator Bcl-2 (Homo sapiens) (UniProt P10415); test: Binding affinity to recombinant human Bcl-2 assessed as interaction by measuring decrease in chemiluminescence signal at 0.01 to 5 uM incubated overnight by dot-blot analysis; conditions: dose 0.01-5 µM
MCF7 = test: Antitumor activity against ER-positive human MCF7 cells xenografted in Danio rerio embryo assessed as decrease in tumor size at 1 to 5 uM administered for 48 hrs by imaging analysis; format: functional, cell-based; conditions: dose 1-5 µM
T47D = test: Antitumor activity against ER-positive human T47D cells xenografted in Danio rerio embryo assessed as decrease in tumor size at 1 to 5 uM administered for 48 hrs by imaging analysis; format: functional, cell-based; conditions: dose 1-5 µM
HCC1500 [37] = test: Anticancer activity against ER-positive human HCC1500 cells assessed as effect on metabolic activity upto 10 uM incubated for 24 hrs by MTT assay; format: functional, cell-based
CAMA-1 [38] = test: Anticancer activity against ER-positive human CAMA-1 cells assessed as effect on metabolic activity upto 10 uM incubated for 24 hrs by MTT assay; format: functional, cell-based
HCC1428 [39] = test: Anticancer activity against ER-positive human HCC1428 cells assessed as effect on metabolic activity upto 10 uM incubated for 24 hrs by MTT assay; format: functional, cell-based
ZR-75-30 [40] = test: Anticancer activity against ER-positive human ZR-75-30 cells assessed as effect on metabolic activity upto 10 uM incubated for 24 hrs by MTT assay; format: functional, cell-based
BJ [41] = test: Cytotoxicity against human BJ cells assessed as effect on metabolic activity at 1 to 10 uM incubated for 24 hrs by MTT assay; format: toxicity, cell-based; conditions: dose 1-10 µM
[42] = Cytotoxicity against human MCF-10F cells assessed as effect on metabolic activity at 1 to 10 uM incubated for 24 hrs by MTT assay; format: toxicity, cell-based; conditions: dose 1-10 µM
HCC1428 [43] = test: Induction of mitochondrial dysfunction in human HCC1428 cells assessed as decrease in maximal respiration at 5 uM incubated for 6 hrs by real time analysis; format: functional, cell-based
HCC1428 [44] = test: Induction of mitochondrial dysfunction in human HCC1428 cells assessed as decrease in ATP production at 5 uM incubated for 6 hrs by real time analysis; format: functional, cell-based
HCC1428 [45] = test: Induction of mitochondrial dysfunction in human HCC1428 cells assessed as decrease in spare respiratory capacity at 5 uM incubated for 6 hrs by real time analysis; format: functional, cell-based
HCC1428 [46] = test: Induction of mitochondrial dysfunction in human HCC1428 cells assessed as decrease in coupling efficiency at 5 uM incubated for 6 hrs by real time analysis; format: functional, cell-based
HCC1428 [47] = test: Induction of mitochondrial dysfunction in human HCC1428 cells assessed as increase in proton leak at 5 uM incubated for 6 hrs by real time analysis; format: functional, cell-based

Sequence of Apoptosis regulator Bcl-2 (Homo sapiens) (P10415 whole entry): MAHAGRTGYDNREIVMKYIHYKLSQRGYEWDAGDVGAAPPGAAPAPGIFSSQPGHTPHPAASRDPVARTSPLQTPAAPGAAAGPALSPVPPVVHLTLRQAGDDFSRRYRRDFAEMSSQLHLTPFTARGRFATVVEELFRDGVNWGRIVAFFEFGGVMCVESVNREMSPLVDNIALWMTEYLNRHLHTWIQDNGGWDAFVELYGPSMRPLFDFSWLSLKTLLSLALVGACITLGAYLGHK
Sequence of RAC-alpha serine/threonine-protein kinase (Homo sapiens) (P31749 whole entry, the tested form may be a part): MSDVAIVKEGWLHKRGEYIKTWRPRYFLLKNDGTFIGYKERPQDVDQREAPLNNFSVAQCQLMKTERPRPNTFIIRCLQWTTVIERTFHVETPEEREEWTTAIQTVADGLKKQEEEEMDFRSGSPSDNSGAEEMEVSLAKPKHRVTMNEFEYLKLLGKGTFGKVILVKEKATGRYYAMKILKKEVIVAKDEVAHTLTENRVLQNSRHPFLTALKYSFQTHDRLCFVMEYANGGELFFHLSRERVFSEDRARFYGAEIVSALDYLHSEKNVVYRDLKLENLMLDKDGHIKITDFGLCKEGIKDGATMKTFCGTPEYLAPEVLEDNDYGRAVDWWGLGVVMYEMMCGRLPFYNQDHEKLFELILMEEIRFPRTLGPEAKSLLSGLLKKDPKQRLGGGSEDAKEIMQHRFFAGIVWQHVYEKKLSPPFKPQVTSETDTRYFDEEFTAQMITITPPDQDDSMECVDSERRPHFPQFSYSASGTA

Activity (Mitochondrial membrane [3]): inactive
Activity (Mitochondrial membrane [4]): inactive
Activity (Mitochondrial membrane [5]): inactive
Activity (Mitochondrial membrane [6]): inactive
Activity [35]: Active
Activity [36]: Active
SMILES: O=c1c(O)c(-c2ccc(O)c(O)c2)oc2cc(O)ccc12 [FISETIN]
Activity (HCC1428 [1]): Active
Activity (BJ [2]): Toxic
Activity (HCC1428 [7]): inactive
Activity (HCC1428 [8]): inactive
Activity (HCC1428 [9]): inactive
Activity (HCC1428 [10]): inactive
Activity (HCC1428 [11]): inactive
Activity (MCF-10F [12]): inactive
Activity (MCF-10F [13]): inactive
Activity (MCF-10F [14]): inactive
Activity (MCF-10F [15]): inactive
Activity (MCF-10F [16]): inactive
Activity (HCC1428 [17]): inactive
Activity (HCC1428 [18]): inactive
Activity (HCC1428 [19]): inactive
Activity (HCC1428 [20]): inactive
Activity (HCC1428 [21]): inactive
Activity (HCC1428 [22]): inactive
Activity (HCC1428 [23]): inactive
Activity (HCC1428 [24]): inactive
Activity (HCC1428 [25]): inactive
Activity (HCC1500 [26]): inactive
Activity (CAMA-1 [27]): inactive
Activity (HCC1428 [28]): inactive
Activity (ZR-75-30 [29]): inactive
Activity (HCC1500 [30]): inactive
Activity (CAMA-1 [31]): inactive
Activity (HCC1428 [32]): inactive
Activity (ZR-75-30 [33]): inactive
Activity (HCC1428 [34]): Active
Activity (MCF7): inactive
Activity (T47D): inactive

Activity [35]: Active
Activity [36]: Active
SMILES: CC(=O)Oc1c(-c2ccc3c(c2)OC(c2ccccc2)(c2ccccc2)O3)oc2cc(OCCCC[P+](c3ccccc3)(c3ccccc3)c3ccccc3)ccc2c1=O.[I-]
Activity (HCC1500 [37]): Active
Activity (CAMA-1 [38]): Active
Activity (HCC1428 [39]): Active
Activity (ZR-75-30 [40]): Active
Activity (BJ [41]): Non-toxic
Activity [42]: Non-toxic
Activity (HCC1428 [43]): Active
Activity (HCC1428 [44]): Active
Activity (HCC1428 [45]): Active
Activity (HCC1428 [46]): Active
Activity (HCC1428 [47]): Active

Activity [35]: Active
Activity [36]: Active
SMILES: O=c1c(O)c(-c2ccc3c(c2)OC(c2ccccc2)(c2ccccc2)O3)oc2cc(O)ccc12
Activity (HCC1428 [43]): Active; Slight Effect Observed
Activity (HCC1428 [44]): Active; Slight Effect Observed
Activity (HCC1428 [45]): Active; Slight Effect Observed
Activity (HCC1428 [46]): Active; Slight Effect Observed
Activity (HCC1428 [47]): Active; Slight Effect Observed
Activity (MCF7): inactive
Activity (T47D): inactive
